In the supplement of paper PMC8882468:
± gives the standard deviation of the averaged measurements.

Columns and labels:
Test in all cases: CTG-3D luminescence at 96 h relative to day-0 seeding control (ratio to day 0); higher = more growth / less cytotoxicity; PDxO 3D drug screen (set 2), 96 h, CTG-3D normalised to day-0 seeding control.
[1] = system: HCI-001 (organoid from a triple-negative breast cancer xenograft)
[2] = system: HCI-002 (organoid from a triple-negative breast cancer xenograft)
[3] = system: HCI-005.E2 (organoid from a breast cancer xenograft with a HER2-positive history)
[4] = system: HCI-008 (organoid from a HER2-enriched breast cancer xenograft)
[5] = system: HCI-015 (organoid from a triple-negative breast cancer xenograft)
[6] = system: HCI-025 (organoid from a breast cancer xenograft)

Nc1cc(C(F)(F)F)c(-c2cc(N3CCOCC3)nc(N3CCOCC3)n2)cn1 [buparlisib]
CTG-3D luminescence at 96 h
Details | 12.5 pM | 0.00025 µM | 0.005 µM | 0.1 µM | 1 µM | 10 µM | 100 µM | 625 fM
[1], days in culture: 365 | 3.09 | 2.29 | 2.5 | 3.19 | 1.82 | 0.687 | 0.646 | 1.89
[1], days in culture: 397 | 1.95 | 2.38 | 2.48 | 2.22 | 1.46 | 0.715 | 0.507 | 1.44
[1], days in culture: 401 | 1.47 | 1.87 | 1.41 | 1.86 | 1.11 | 0.572 | 0.512 | 1.76
[2], days in culture: 127 | 2.59 | 2.87 | 2.94 | 3.16 | 2.14 | 0.496 | 0.461 | 2.98
[2], days in culture: 155 | 5.8 | 5.75 | 6.05 | 5.13 | 3.11 | 0.466 | 0.411 | 4.41
[2], days in culture: 168 | 3.25 | 3.53 | 3.92 | 2.96 | 2.25 | 0.309 | 0.241 | 4.04
[4], days in culture: 325 | 0.757 | 2.89 | 2.4 | 2.51 | 1.17 | 0.647 | 0.313 | 1.94
[4], days in culture: 340 | 0.632 | 2.38 | 1.94 | 1.55 | 1.56 | – | 0.305 | 1.04
[4], days in culture: 354 | 0.796 | 1.19 | 2.59 | 1.46 | 0.578 | 0.294 | 0.327 | 1.16
[4], days in culture: 382 | 1.52 | 1.82 | 1.45 | 1.71 | 0.652 | 0.363 | 0.104 | 1.9
[5], days in culture: 333 | 2.29 | 1.36 | 1.57 | 1.43 | 0.645 | 0.204 | 0.269 | 1.16
[5], days in culture: 355 | 1.31 | 3.75 | 1.42 | 1.76 | 0.946 | 0.466 | 0.46 | 2.06
[5], days in culture: 369 | 1.92 | 1.66 | 2.47 | 1.92 | 0.94 | 0.378 | 0.599 | 1.66
[6], days in culture: 175 | 1.38 | 1.85 | 1.95 | 1.88 | 1.75 | 0.433 | 0.118 | 1.71
[6], days in culture: 189 | 2.47 | 2.03 | 1.96 | 1.69 | 1.36 | 0.246 | 0.0627 | 2.83
[6], days in culture: 212 | 3.39 | 3.81 | 2.06 | 1.13 | 1.13 | 0.331 | 0.0312 | 1.54
[6], days in culture: 224 | 2.03 | 2.32 | 1.5 | 1.44 | 1.75 | 0.339 | 0.136 | 1.69

[3]
Details | CTG-3D luminescence at 96 h
12.5 pM | 1.84 ± 0.51
0.00025 µM | 2.58 ± 0.53
0.005 µM | 2.64 ± 0.52
0.1 µM | 3.03 ± 1
1 µM | 1.45 ± 0.33
10 µM | 0.703 ± 0.086
100 µM | 0.594 ± 0.17
625 fM | 2.11 ± 0.7
